Assay results published in patent USRE35053E, “Amines useful in producing pharmaceutically active CNS compounds” (The Upjohn Company, priority 1992, dated 1995).
Structures can show the parent of a compound that is named as a salt.

Legend:
angiogenesis = assay: fertile egg or chick embryo assay of Folkman (inhibition of angiogenesis / tumor growth); type: in vivo; conditions: chick embryo; for inhibition of angiogenesis: 50 μg/10 μl with heparin, avascular zone 4 mm or greater; for % of Embryos with 4 mm or Greater A vascular Zone: 50 μg/10 μl in the presence of heparin
Experimental: According to this procedure compounds which are considered to be "active" (i.e, antiangiogenic) give an avascular zone of 4 mm or greater in some embryos when tested at 50 μg/10 μl in the presence of 50 μg/10 μ of heparin.

arachidonic acid = assay: Arachidonic Acid Antagonism Assay (AAAA); type: in vivo, mouse (Charles River male CF-1); conditions: mice; for arachidonic acid antagonism (elevation of LD50 of arachidonic acid): IV, 15 min before sodium arachidonate, outside 95% confidence interval of control LD50
Experimental: While not necessary to determine arachidonic acid antagonism, the above assay has been modified as follows: Charles River male CF-1 mice weighing […] are treated IV with the test compound dissolved in 1.0% Tween-80 and 0.1% hydrochloric acid in distilled water. 0 2 ml total volume. Fifteen minutes later sodium arachidonate (90% pure) in physiological (normal) […] is injected into the tail vein. The LD50 is measured using the Spearman-Karber method with a log dose interval of 0.05 (N-6). Compounds which elevate the LD50 outside of the 95% confidence interval of the control LD50 are considered to be "active".

Structure (SMILES)	inhibition of angiogenesis (angiogenesis)	arachidonic acid antagonism (elevation of LD50 of arachidonic acid) (arachidonic acid)	further results
COc1ccc(CCNCC(=O)[C@@]2(O)CC[C@H]3[C@@H]4C[C@H](C)C5=CC(=O)C=C[C@]5(C)[C@H]4[C@@H](O)C[C@@]32C)cc1OC [Example 34, 11β,17α-dihydroxy-21-[[2-(3,4-dimethoxyphenyl)ethyl]-amino]-6α-methylpregna-1,4-diene-3,20-dione hydrochloride]	demonstrate inhibition of angiogenesis	–	–
COc1ccc(N2CCN(CC(=O)[C@@]3(O)CC[C@H]4[C@@H]5CCC6=CC(=O)CC[C@]6(C)[C@H]5[C@H](OC(=O)CC(C)(C)C)C[C@@]43C)CC2)cc1 [Example 32, 11α,17α-dihydroxy-21-[4-(4-methoxyphenyl)-1-piperazinyl]pregn-4-ene-3,20-dione 11-(3,3-dimethyl 1-butyrate) dihydrochloride]	demonstrate inhibition of angiogenesis	–	–
C[C@H]1C[C@H]2[C@@H]3CC[C@H]4CC(=O)CC[C@]4(C)C3=CC[C@]2(C)[C@@]1(O)C(=O)CN1CCN(c2ccccn2)CC1.Cl.Cl.O [Example 44, 17α-hydroxy-16β-methyl-21-[4-(2-pyridinyl)-1-piperazinyl]-5α-pregn-9(11)-ene-3,20-dione dihydrochloride hydrate]	–	–	% of Embryos with 4 mm or Greater A vascular Zone (angiogenesis): 75%
C[C@]12C[C@@H](O)[C@H]3[C@@H](CCC4=CC(=O)CC[C@@]43C)[C@@H]1CC[C@@H]2C(=O)CN1CCN(c2ccccn2)CC1.Cl.Cl [Example 36, 11α-hydroxy-21-[4-(2-pyridinyl)-1-piperazinyl]pregn-4-ene-3,20-dione, dihydrochloride]	demonstrate inhibition of angiogenesis	–	–
COc1ccc(N2CCN(CC(=O)[C@@]3(O)CC[C@H]4[C@@H]5C[C@H](C)C6=CC(=O)C=C[C@]6(C)[C@H]5[C@@H](O)C[C@@]43C)CC2)cc1 [Example 33, 11β,17α-dihydroxy-21-[4-(4-methoxyphenyl)-1-piperazinyl]-6α-methylpregna-1,4-diene-3,20-dione dihydrochloride]	demonstrate inhibition of angiogenesis	–	–
C[C@]12C=CC(=O)C=C1CC[C@@H]1C2=CC[C@@]2(C)[C@H]1CC[C@]2(O)C(=O)CN1CCN(c2cc(N3CCCC3)nc(N3CCCC3)n2)CC1.Cl.Cl.O [Example 74, 17α-hydroxy-21-[4-[2,6-di-(1-pyrrolidinyl)-4-pyrimidinyl]-1-piperazinyl]pregna-1,4,9(11)-triene-3,20-dione dihydrochloride hydrate]	–	demonstrate arachidonic acid antagonism	–
COc1ccccc1N1CCN(CC(=O)[C@@]2(O)CC[C@H]3[C@@H]4CCC5=CC(=O)CC[C@]5(C)[C@H]4CC[C@@]32C)CC1.Cl.Cl.O [Example 41, 17α-hydroxy-21-[4-(2-methoxyphenyl)-1-piperazinyl]-pregn-4-ene-3,20-dione dihydrochloride hydrate]	–	–	% of Embryos with 4 mm or Greater A vascular Zone (angiogenesis): 80%
CN1CCN(c2cc(N3CCN(CC(=O)[C@@]4(O)CC[C@H]5[C@@H]6CCC7=CC(=O)CC[C@]7(C)C6=CC[C@@]54C)CC3)nc(N3CCN(C)CC3)n2)CC1.CS(=O)(=O)O.O [Example 19, 17α-Hydroxy-21-[4-[2,6-bis(4-methyl 1 piperazinyl)-4-pyrimidinyl]-1-piperazinyl]pregna-4,9(11)-diene-3,20-dione methanesulfonate hydrate]	–	demonstrate arachidonic acid antagonism	–
COc1ccc(CCN(CC(=O)[C@@]2(O)CC[C@H]3[C@@H]4CCC5=CC(=O)CC[C@]5(C)C4=CC[C@@]32C)Cc2ccc(N(C)C)cc2)cc1OC [Example 51, 17α-hydroxy-21-[[2-(3,4-dimethoxyphenyl)ethyl]-4-(dimethylamino)phenyl]methyl]amino]pregna-4,9(11)-3,20-dione hydrochloride]	–	demonstrate arachidonic acid antagonism	–
COc1cccc(N2CCN(CC(=O)[C@@]3(O)CC[C@H]4[C@@H]5CCC6=CC(=O)CC[C@]6(C)C5=CC[C@@]43C)CC2)n1.CS(=O)(=O)O [Example 22, 17α-hydroxy-21-[4-(6-methoxy-2-pyridinyl)-1-piperazinyl]pregna-4,9(11)-diene-3,20-dione monomethanesulfonate]	–	demonstrate arachidonic acid antagonism	–
C=CCNc1nc(NCC=C)nc(N2CCN(CC(=O)[C@@]3(O)CC[C@H]4[C@@H]5CCC6=CC(=O)CC[C@]6(C)C5=CC[C@@]43C)CC2)n1.Cl.Cl.O [Example 60, 17α-hydroxy-21-[4-[4,6-bis(2-propenylamino)-1,3,5-triazin-2-yl]-1-piperazinyl]pregna-4,9(11)-diene-3,20-dione dihydrochloride hydrate]	–	demonstrate arachidonic acid antagonism	–
C[C@]12CCC(=O)C=C1CC[C@@H]1[C@@H]2[C@H](O)C[C@@]2(C)[C@H]1CC[C@]2(O)C(=O)CN1CCN(c2ccc(F)cc2)CC1 [Example 29, 21-[4-(4-fluorophenyl)-1-piperazinyl]-11α,17α-dihydroxypregn-4-ene-3,20-dione dihydrochloride]	–	demonstrate arachidonic acid antagonism	–
C[C@]12CCC(=O)C=C1CC[C@@H]1C2=CC[C@@]2(C)[C@H]1CC[C@]2(O)C(=O)CN1CCN(c2cc(N3CCCC3)nc(N3CCCC3)n2)CC1 [Example 64, 17α-hydroxy-21-[4-[2,6-bis(1-pyrrolidinyl)-4-pyrimidinyl]-1-piperazinyl]pregna-4,9(11)-diene-3,20-dione (E)-2-butenedioate (1:1) salt]	demonstrate inhibition of angiogenesis	–	–
CCN(CC)c1cc(N2CCN(C(=O)[C@@]3(O)CC[C@H]4[C@@H]5CCC6=CC(=O)CC[C@]6(C)[C@H]5CC[C@@]43C)CC2)nc(N(CC)CC)n1 [Example 57]	–	demonstrate arachidonic acid antagonism	% of Control LD50 (arachidonic acid; 100 mg/kg, LD50 of sodium arachidonate): 124%
CCN(CC)c1cc(N2CCN(CC(=O)[C@@]3(O)CC[C@H]4[C@@H]5C[C@H](C)C6=CC(=O)C=C[C@]6(C)C5=CC[C@@]43C)CC2)nc(N(CC)CC)n1 [Example 63, 21-[4-[2,6-bis(diethylamino)-4-pyrimidinyl]-1-piperazinyl]-17α-hydroxy-6α-methylpregna-1,4,9(11)-triene-3,20-dione(E)-2-butenedioate (1:1) salt]	demonstrate inhibition of angiogenesis	–	–
C[C@]12CC[C@@H](O)C[C@H]1CC[C@@H]1[C@@H]2C(=O)C[C@@]2(C)[C@H]1CC[C@]2(O)C(=O)CN1CCN(c2ccccn2)CC1 [Example 99, 3α,17α-dihydroxy-21-[4-(2-pyridinyl)-1-piperazinyl]-5β-pregnane-11,20-dione dihydrochloride hydrate]	demonstrate inhibition of angiogenesis	–	–
C[C@]12CCC(=O)C=C1CC[C@@H]1C2=CC[C@@]2(C)[C@H]1CC[C@]2(O)C(=O)CN1CCN(C(=O)c2ccco2)CC1 [Example 6B, 17α-Hydroxy-21-[4-(2-furonylcarbonyl)-1-piperazinyl]-pregna-4,9(11)-diene-3,20-dione]	demonstrate inhibition of angiogenesis	–	–
C[C@]12CCC(=O)C=C1CC[C@@H]1[C@@H]2C(=O)C[C@@]2(C)[C@H]1CC[C@]2(O)C(=O)CN1CCN(c2ccccn2)CC1 [Example 20]	demonstrate inhibition of angiogenesis	–	% of Embryos with 4 mm or Greater A vascular Zone (angiogenesis): 72%
